# Data as given in patent US6995187B1, “Peripheral cannabinoid receptor (CB2) selective ligands” (University of Connecticut, priority 1999, dated 2006).
# Columns and labels:
# [1] = target: T1, CB2 receptor (Mus musculus, UniProt P47936); experiment: CB2 receptor binding assay ([3H] CP-55,940 displacement, mouse spleen membranes); settings: 0.8 nM [3H] CP-55,940, read-out: CB2 affinity
# T1 construct: membranes were prepared from frozen mouse spleen; from tissue; host or cells: mouse spleen
# Protocol: (§1) As used herein, “binding affinity” is represented by the IC50 value which is the concentration of an analog required to occupy the 50% of the total number (Bmax) of the receptors. The lower the IC50 value, the higher the binding affinity. […] The binding affinities (Ki) are expressed in nanomoles (nM).
# (§2) Membranes, previously frozen at −80° C., were thawed on ice. To the stirred suspension was added three volumes of TME (25 mM Tris-HCl buffer, 5 mM MgCl2 and 1 mM EDTA) at a pH 7.4. The suspension was incubated at 4° C. for 30 min. At the end of the incubation, the membranes were pelleted and washed three times with TME.
# The treated membranes were subsequently used in the binding assay described below. Approximately 30 μg of membranes were incubated in silanized 96-well microtiter plate with TME containing 0.1% essentially fatty acid-free bovine serum albumin (BSA), 0.8 nM [^3H] […] Radioactivity was detected using MicroScint 20 scintillation cocktail added directly to the dried filterplates, and the filterplates were counted using a Packard Instruments Top-Count. Nonspecific binding was assessed using 100 nM CP-55,940. […] CP-55,940, determined using buffer and 100 nM CP-55,940. The normalized data was analyzed using a 4-parameter nonlinear logistic equation to yield IC50 values. […]
# [2] = target: T2, CB1 receptor (Rattus norvegicus, UniProt P20272); experiment: CB1 receptor binding assay ([3H] CP-55,940 displacement, rat forebrain membranes); settings: CB2 (mouse spleen) versus CB1 (rat forebrain) binding affinity
# T2 construct: membranes were prepared from rat forebrain membranes; from tissue; host or cells: rat forebrain
# Protocol: as §1
# The above articles are incorporated by reference herein.
# as §2
# The treated membranes were subsequently used in the binding assay described below. Approximately 30 μg of membranes were incubated in silanized 96-well microtiter plate with TME containing 0.1% essentially fatty acid-free bovine serum albumin (BSA), 0.8 nM [^3H] […] Radioactivity was detected using MicroScint 20 scintillation cocktail added directly to the dried filterplates, and the filterplates were counted using a Packard Instruments Top-Count. Nonspecific binding was assessed using 100 nM CP-55,940. […] CP-55,940, determined using buffer and 100 nM CP-55,940. The normalized data was analyzed using a 4-parameter nonlinear logistic equation to yield IC50 values.
# [3] = test system: paw-withdrawal latency to radiant heat in male Sprague-Dawley rats; experiment: Cannabinoid mediated antinociception: paw-withdrawal latency to a thermal nociceptive stimulus (Hargreaves method); format: in vivo; settings: rat, subcutaneous injection in plantar surface of hindpaw, in DMSO, 50 μl; FIGS. 1–13
# Protocol: Cannabinoid Mediated Antinociception.
# Method. Male Sprague-Dawley rats (Harlan; Indianapolis, Ind.) 200–300 grams at time of testing, were maintained in a climate-controlled room on a 12-h light/dark cycle (lights on at 06:00 h) and food and water were available ad libitum. All of the testing was performed in accordance with the policies and recommendations of the International Association for the Study of Pain (IASP) and the National Institutes of Health (NIH) guidelines for the handling and use of laboratory animals and received approval from the Institutional Animal Care and Use Committee (IACUC) of the University of Arizona.
# All drugs were dissolved in dimethyl sulfoxide (DMSO) and were injected subcutaneously in the plantar surface of the hindpaw in a total volume of 50 μl. DMSO given in hindpaw at this volume had no effect. The method of Hargreaves, K.; Dubner, R.; Brown, F.; Flores, C.; and Joris, J., A New Sensitive Method for Measuring Thermal Nociception in Cutaneous Hyperalgesia. […] Paw-withdrawal latency was determined by a photocell that halted both lamp and timer when the paw was withdrawn. The latency to withdrawal of the paw from the radiant heat source was determined both before and after drug or vehicle administration. […]
# T2 sequence (P20272 whole entry): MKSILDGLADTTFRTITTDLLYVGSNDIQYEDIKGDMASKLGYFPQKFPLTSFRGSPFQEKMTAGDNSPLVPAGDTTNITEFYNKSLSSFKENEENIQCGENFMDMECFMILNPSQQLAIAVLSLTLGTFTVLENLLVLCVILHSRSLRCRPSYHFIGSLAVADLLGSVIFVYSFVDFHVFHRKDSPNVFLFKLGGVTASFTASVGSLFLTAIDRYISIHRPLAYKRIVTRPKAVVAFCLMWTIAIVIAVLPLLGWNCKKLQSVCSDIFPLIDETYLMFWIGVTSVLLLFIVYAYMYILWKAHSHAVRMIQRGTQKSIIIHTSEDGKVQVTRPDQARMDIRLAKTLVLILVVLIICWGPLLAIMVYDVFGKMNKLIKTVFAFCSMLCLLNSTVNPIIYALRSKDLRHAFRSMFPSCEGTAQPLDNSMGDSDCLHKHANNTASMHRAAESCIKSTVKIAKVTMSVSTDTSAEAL
# T1 sequence (P47936 whole entry): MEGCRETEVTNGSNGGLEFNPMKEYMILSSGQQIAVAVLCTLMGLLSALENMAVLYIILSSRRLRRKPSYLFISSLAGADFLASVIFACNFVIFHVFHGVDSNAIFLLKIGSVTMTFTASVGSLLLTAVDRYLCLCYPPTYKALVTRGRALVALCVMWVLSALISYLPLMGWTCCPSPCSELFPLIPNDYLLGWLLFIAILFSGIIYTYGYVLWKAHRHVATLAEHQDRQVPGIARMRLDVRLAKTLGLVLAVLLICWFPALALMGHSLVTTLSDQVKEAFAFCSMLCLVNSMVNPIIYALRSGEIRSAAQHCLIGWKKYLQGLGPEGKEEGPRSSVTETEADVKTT
Structure (SMILES),Ki [1] [pM],CB2 selectivity over CB1 [2] [fold],physiological effects in test animals including analgesia [3]
"CCCCCCC(C)(C)c1cc(O)c2c(c1)oc(=O)c1ccc(OC)cc12 [AM1710, 3-(1,1-Dimethylheptyl)-1-hydroxy-9-methoxy-6H-dibenzo[b,d]pyran-6-one]",490,~750,
"CCCCCCC(C)(C)c1cc(O)c2c(c1)oc(=O)c1ccc(O)cc12 [AM1714, 3-(1,1-Dimethylheptyl)-1,9-dihydroxy-6H-dibenzo[b,d]pyran-6-one]",,,produced notable physiological effects in test animals including analgesia
